Source: the supplement of paper PMC11208160

Assay: recombinant UMI read abundance after kanamycin selection (control-corrected) (log10(CPM+1)); higher = more efficient recombination; extreme values may be limits of the assay; sequences stand for … in AGTGCAGAGAAAATCGGCCAGTTTTCTCTGCCTGCAGTCCGCATGCCGTGGGACCCCTTGGGTTCTAACCTGTTGCCTAGATTTATGCAGCGGACTGCCTTTCTCCCAAAGTGATAAACCGG…AGGTTGGTTTCACT; site = the 11-nt donor
Summary of the method: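 The measure is log10(CPM+1) for recombinant UMIs. These were PCR-amplified across the donor–target junction and sequenced after Escherichia coli carrying a donor and donor-binding-loop pair library and a target plasmid with T7-inducible IS621 bridge recombinase was plated on IPTG (0.07 mM) plus kanamycin or unselected. CPM were averaged over two replicates and scaled by control-derived factors.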
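Further: IS621 bridge recombinase in Escherichia coli cells against a fixed T5 target plasmid.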

| Sequence | recombinant UMI read abundance (log10) |
| --- | --- |
| CGCGAACCATGGACCGGTTTTCCCGGTAATCCGTATTTGAT (site CGAGAACCTAT) | 0 |
| CGCGAACCATGGACCGGTTTTCCCGGTAATCCGTATTTGAT (site CGCGAACCTAT) | 0 |
| CGCGAACCATGGACCGGTTTTCCCGGTAATCCGTATTTGAT (site CGGGAACCTAT) | 0 |
| CGCGAACCATGGACCGGTTTTCCCGGTAATCCGTATTTGAT (site CGTGAACCTAT) | 0 |
| CGCGATTCATGGACCGGTTTTCCCGGTAATCCGTATTTGGC (site CGCGATTCTGC) | 1.61 |
| CGCGCGCCATGGACCGGTTTTCCCGGTAATCCGTATTTGAG (site CGCGCGCCTCT) | 0.0359 |
| CGCGGTACATGGACCGGTTTTCCCGGTAATCCGTATTTGCT (site CGCAGTACTAG) | 1.64 |
| CGCGGTACATGGACCGGTTTTCCCGGTAATCCGTATTTGCT (site CGCCGTACTAG) | 0 |
| CGCGGTACATGGACCGGTTTTCCCGGTAATCCGTATTTGCT (site CGCGGTACTAG) | 1.92 |
| CGCGGTACATGGACCGGTTTTCCCGGTAATCCGTATTTGCT (site CGCTGTACTAG) | 0.467 |
| CGCGTCACATGGACCGGTTTTCCCGGTAATCCGTATTTGAC (site CGCGTCACTGT) | 2.44 |
| CGCGTGTCATGGACCGGTTTTCCCGGTAATCCGTATTTGAC (site CGCGTGTCTGT) | 0 |
| CGCTAATCATGGACCGGTTTTCCCGGTAATCCGTATTTGCT (site CGATCATCTAG) | 0 |
| CGCTAATCATGGACCGGTTTTCCCGGTAATCCGTATTTGCT (site CGCTAATCTAG) | 1.97 |
| CGCTACACATGGACCGGTTTTCCCGGTAATCCGTATTTGCT (site CACTACACTAG) | 1.32 |
| CGCTACACATGGACCGGTTTTCCCGGTAATCCGTATTTGCT (site CCCTACACTAG) | 1.29 |
| CGCTACACATGGACCGGTTTTCCCGGTAATCCGTATTTGCT (site CGCTACACTAG) | 2.9 |
| CGCTACACATGGACCGGTTTTCCCGGTAATCCGTATTTGCT (site CTCTACACTAG) | 0.92 |
| CGCTAGGCATGGACCGGTTTTCCCGGTAATCCGTATTTGGT (site AGCTAGGCTAC) | 0.0207 |
| CGCTAGGCATGGACCGGTTTTCCCGGTAATCCGTATTTGGT (site CGCTAGGCTAC) | 0.0166 |
| CGCTAGGCATGGACCGGTTTTCCCGGTAATCCGTATTTGGT (site GGCTAGGCTAC) | 0.00627 |
| CGCTAGGCATGGACCGGTTTTCCCGGTAATCCGTATTTGGT (site TGCTAGGCTAC) | 0.0198 |
| CGCTCAACATGGACCGGTTTTCCCGGTAATCCGTATTTGCC (site CGCTCAACTGG) | 0.429 |
| CGCTCATCATGGACCGGTTTTCCCGGTAATCCGTATTTGCG (site CGATCATCTAG) | 0 |
| CGCTCATCATGGACCGGTTTTCCCGGTAATCCGTATTTGCG (site CGCTCATCTCG) | 0.716 |
| CGCTCATCATGGACCGGTTTTCCCGGTAATCCGTATTTGCT (site CGATCATCTAG) | 0 |

| Sequence | recombinant UMI read abundance (log10) |
| --- | --- |
| CGCTCATCATGGACCGGTTTTCCCGGTAATCCGTATTTGCT (site CGCTCATCTAG) | 2.6 |
| CGCTCATCATGGACCGGTTTTCCCGGTAATCCGTATTTGCT (site CGGTCATCTAG) | 0 |
| CGCTCATCATGGACCGGTTTTCCCGGTAATCCGTATTTGCT (site CGTTCATCTAG) | 1.35 |
| CGCTCGACATGGACCGGTTTTCCCGGTAATCCGTATTTGTT (site CGATCGACTAA) | 0 |
| CGCTCGACATGGACCGGTTTTCCCGGTAATCCGTATTTGTT (site CGCTCGACTAA) | 0 |
| CGCTCGACATGGACCGGTTTTCCCGGTAATCCGTATTTGTT (site CGGTCGACTAA) | 0 |
| CGCTCGACATGGACCGGTTTTCCCGGTAATCCGTATTTGTT (site CGTTCGACTAA) | 0 |
| CGCTGGCCATGGACCGGTTTTCCCGGTAATCCGTATTTGCT (site CGCTGGCCTAG) | 0.278 |
| CGCTTGGCATGGACCGGTTTTCCCGGTAATCCGTATTTGCT (site CGATTGGCTAG) | 0 |
| CGCTTGGCATGGACCGGTTTTCCCGGTAATCCGTATTTGCT (site CGCTTGGCTAG) | 0 |
| CGCTTGGCATGGACCGGTTTTCCCGGTAATCCGTATTTGCT (site CGGTTGGCTAG) | 0 |
| CGCTTGGCATGGACCGGTTTTCCCGGTAATCCGTATTTGCT (site CGTTTGGCTAG) | 0 |
| CGCTTGTCATGGACCGGTTTTCCCGGTAATCCGTATTTGCG (site CGCTTGTCTCG) | 1.46 |
| CGGAAATCATGGACCGGTTTTCCCGGTAATCCGTATTTGCT (site CGGAAATCTAG) | 2.06 |
| CGGAAATCATGGACCGGTTTTCCCGGTAATCCGTATTTGCT (site CGGACATCTAG) | 0.293 |
| CGGAAATCATGGACCGGTTTTCCCGGTAATCCGTATTTGCT (site CGGAGATCTAG) | 0.215 |
| CGGAAATCATGGACCGGTTTTCCCGGTAATCCGTATTTGCT (site CGGATATCTAG) | 0 |
| CGGAACGCATGGACCGGTTTTCCCGGTAATCCGTATTTGTT (site CGGAACGCTAA) | 3.15 |
| CGGAACGCATGGACCGGTTTTCCCGGTAATCCGTATTTGTT (site CGGAATCCTAA) | 0.0213 |
| CGGAAGACATGGACCGGTTTTCCCGGTAATCCGTATTTGTT (site CGGAAGACTAA) | 2.3 |
| CGGAAGACATGGACCGGTTTTCCCGGTAATCCGTATTTGTT (site CGGAATCCTAA) | 0.00737 |
| CGGAAGCCATGGACCGGTTTTCCCGGTAATCCGTATTTGAT (site CGGAAGCCTAT) | 0.713 |
| CGGAAGCCATGGACCGGTTTTCCCGGTAATCCGTATTTGAT (site CGGAATCCTAA) | 0 |
| CGGAAGCCATGGACCGGTTTTCCCGGTAATCCGTATTTGCA (site AGGAAGACTTG) | 0 |
| CGGAAGCCATGGACCGGTTTTCCCGGTAATCCGTATTTGCA (site CGGAAGCCTTG) | 0 |
| CGGAATCCATGGACCGGTTTTCCCGGTAATCCGTATTTGCA (site CGGAATCCTAA) | 0 |
